Drawing on publication PMC10222120, “Inhibition Studies on Human and Mycobacterial Carbonic Anhydrases with N-((4-Sulfamoylphenyl)carbamothioyl) Amides” (Molecules, 2023), this text covers Ki for 12 compounds.

Holding throughout (experiment): stopped-flow CO2 hydrase assay
Assay type in all cases: biochemical

One assay addresses T1, MtCA3 (Mycobacterium tuberculosis, UniProt P96878).
T1 construct: gene Rv3273
The settings on record: CO2 […]; […] TRIS pH […]; […] Na2SO4; […] h preincubation at room temperature; read-out: KI (nM) ^a / MtCA3 (β-CA). An excerpt:
stopped-flow CO2 hydrase assay on MtCA3

A further assay has as its target T2, hCA II (Homo sapiens, UniProt P00918).
T2 construct: gene CA2; recombinant, obtained in-house; cytosolic alpha-CA
The note with it: read-out: KI (nM) ^a / hCA II (α-CA). From the text: stopped-flow CO2 hydrase assay on hCA II

The next assay addresses MtCA1 (Mycobacterium tuberculosis, UniProt P9WPJ7). The note with it: read-out: KI (nM) ^a / MtCA1 (β-CA).
The next assay addresses MtCA2 (Mycobacterium tuberculosis, UniProt P9WPJ9). The note with it: read-out: KI (nM) ^a / MtCA2 (β-CA).
In another assay the target is T3, hCA VII (Homo sapiens, UniProt P43166).
T3 construct: gene CA7; recombinant, obtained in-house; cytosolic alpha-CA
T3 sequence (P43166 whole entry): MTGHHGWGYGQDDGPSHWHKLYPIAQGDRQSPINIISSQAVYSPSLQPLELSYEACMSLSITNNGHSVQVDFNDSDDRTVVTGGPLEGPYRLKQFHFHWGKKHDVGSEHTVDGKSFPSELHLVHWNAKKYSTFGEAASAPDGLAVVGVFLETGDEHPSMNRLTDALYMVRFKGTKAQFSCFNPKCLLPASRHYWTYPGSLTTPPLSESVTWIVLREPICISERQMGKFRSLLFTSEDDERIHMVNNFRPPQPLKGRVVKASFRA
The settings on record: read-out: KI (nM) ^a / hCA VII (α-CA). An excerpt: stopped-flow CO2 hydrase assay on hCA VII

Another assay has as its target T4, hCA I (Homo sapiens, UniProt P00915).
T4 construct: gene CA1; recombinant, obtained in-house; cytosolic alpha-CA
The note with it: read-out: KI (nM) ^a / hCA I (α-CA). From the text:
stopped-flow CO2 hydrase assay on hCA I

MtCA2, sequence (P9WPJ9 whole entry, looked up): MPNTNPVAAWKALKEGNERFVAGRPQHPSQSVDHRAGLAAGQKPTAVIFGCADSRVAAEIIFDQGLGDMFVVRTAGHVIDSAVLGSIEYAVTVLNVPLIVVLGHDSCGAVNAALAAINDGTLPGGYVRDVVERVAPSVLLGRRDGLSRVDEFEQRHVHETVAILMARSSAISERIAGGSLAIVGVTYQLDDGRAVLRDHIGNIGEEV
T4 sequence (P00915 2-261): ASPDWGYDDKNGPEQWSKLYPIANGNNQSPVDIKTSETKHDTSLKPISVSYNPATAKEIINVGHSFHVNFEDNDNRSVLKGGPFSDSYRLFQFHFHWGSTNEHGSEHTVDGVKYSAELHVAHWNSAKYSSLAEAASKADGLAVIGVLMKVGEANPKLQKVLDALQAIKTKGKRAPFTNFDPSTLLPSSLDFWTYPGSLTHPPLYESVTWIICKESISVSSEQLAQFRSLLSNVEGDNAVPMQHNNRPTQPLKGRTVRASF
T1 sequence (P96878 555-764 limits assumed): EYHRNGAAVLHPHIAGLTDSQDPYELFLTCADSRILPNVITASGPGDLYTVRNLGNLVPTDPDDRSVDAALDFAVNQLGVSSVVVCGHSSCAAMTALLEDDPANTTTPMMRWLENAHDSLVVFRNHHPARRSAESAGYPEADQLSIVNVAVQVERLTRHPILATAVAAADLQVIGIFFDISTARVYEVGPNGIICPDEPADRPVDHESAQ
MtCA1, sequence (P9WPJ7 2-163): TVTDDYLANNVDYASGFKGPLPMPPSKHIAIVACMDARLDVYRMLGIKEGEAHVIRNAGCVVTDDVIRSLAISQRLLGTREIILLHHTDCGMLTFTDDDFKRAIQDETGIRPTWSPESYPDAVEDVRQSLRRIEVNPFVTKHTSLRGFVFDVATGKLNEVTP

`CCC(=O)NC(=S)Nc1ccc(S(N)(=O)=O)cc1` [3b, N-((4-Sulfamoylphenyl)carbamothioyl)propionamide]: the Ki on MtCA3 was 806 nM; at hCA II, 35.9 nM; on MtCA1, 252 nM; at MtCA2, 5.4 nM; at hCA VII, 2.8 nM; on hCA I, 58.3 nM.

For the compound `NS(=O)(=O)c1ccc(NC(=S)NC(=O)c2ccc([N+](=O)[O-])cc2)cc1` [3l, 4-nitro-N-((4-sulfamoylphenyl)carbamothioyl)benzamide], the Ki came to 5280 nM at MtCA3; 6.8 nM at hCA II; 868 nM on MtCA1; 4.8 nM at MtCA2; 2.5 nM at hCA VII; 87.6 nM at hCA I.

For `CC(=O)NC(=S)Nc1ccc(S(N)(=O)=O)cc1` [3a, N-((4-Sulfamoylphenyl)carbamothioyl)acetamide], the Ki was determined as 610 nM at MtCA3; 78.7 nM on hCA II; 897 nM on MtCA1; 4.4 nM at MtCA2; 13.5 nM on hCA VII; 85.2 nM at hCA I.

As for `CCCCCC(=O)NC(=S)Nc1ccc(S(N)(=O)=O)cc1` [3g, N-((4-sulfamoylphenyl)carbamothioyl)hexanamide], the Ki at MtCA3 amounted to 719 nM; on hCA II, 46.5 nM; on MtCA1 it was 3510 nM; on MtCA2, 3.4 nM; at hCA VII, 3.2 nM; at hCA I, 13.3 nM.

Regarding `NS(=O)(=O)c1ccc(NC(=S)NC(=O)C2CCCCC2)cc1` [3h, N-((4-Sulfamoylphenyl)carbamothioyl)cyclohexanecarboxamide], the Ki worked out at 7140 nM at MtCA3; 21.7 nM on hCA II; 6670 nM on MtCA1; 8.4 nM on MtCA2; 2.2 nM on hCA VII; 67.8 nM at hCA I.

Regarding `NS(=O)(=O)c1ccc(NC(=S)NC(=O)/C=C/c2ccccc2)cc1` [3k, N-((4-Sulfamoylphenyl)carbamothioyl)cinnamamide], the Ki is 447 nM at MtCA3; 9.2 nM at hCA II; 224 nM on MtCA1; 8.1 nM on MtCA2; 3.1 nM at hCA VII; 47.9 nM on hCA I.

For `C/C=C/C(=O)NC(=S)Nc1ccc(S(N)(=O)=O)cc1` [3j, N-((4-Sulfamoylphenyl)carbamothioyl)but-2-enamide], the Ki is 851 nM at MtCA3; 64.6 nM on hCA II; 2420 nM on MtCA1; 9.2 nM on MtCA2; 10.3 nM on hCA VII; 69.4 nM at hCA I.

In the case of `CC(C)CC(=O)NC(=S)Nc1ccc(S(N)(=O)=O)cc1` [3f, 3-methyl-N-((4-sulfamoylphenyl)carbamothioyl)butanamide], the Ki at MtCA3 is 8390 nM; at hCA II, 5.3 nM; on MtCA1, 782 nM; on MtCA2 it was 21.1 nM; on hCA VII, 2.1 nM; at hCA I, 36.4 nM.

For `CCCC(=O)NC(=S)Nc1ccc(S(N)(=O)=O)cc1` [3c, N-((4-Sulfamoylphenyl)carbamothioyl)butyramide], the Ki was 9400 nM at MtCA3; 7.7 nM on hCA II; 784 nM at MtCA1; 7.6 nM on MtCA2; 3 nM on hCA VII; 50.3 nM at hCA I.

`CC(C)C(=O)NC(=S)Nc1ccc(S(N)(=O)=O)cc1` [3e, N-((4-sulfamoylphenyl)carbamothioyl)isobutyramide]: the Ki was 3670 nM on MtCA3; 8.9 nM on hCA II; 369 nM on MtCA1; 57.1 nM on MtCA2; 1.1 nM at hCA VII; 72.7 nM on hCA I.

`NS(=O)(=O)c1ccc(NC(=S)NC(=O)C2CC2)cc1` [3d, N-((4-Sulfamoylphenyl)carbamothioyl)cyclopropanecarboxamide]: the Ki at MtCA3 turned out to be 6280 nM; at hCA II it was 384 nM; on MtCA1, 95.2 nM; at MtCA2 it was 4.2 nM; at hCA VII, 1.9 nM; at hCA I it was 87.4 nM.

On to `NS(=O)(=O)c1ccc(NC(=S)NC(=O)Cc2cccc3ccccc23)cc1` [3i, 2-(Naphthalen-1-yl)-N-((4-sulfamoylphenyl)carbamothioyl)acetamide], for which the Ki at MtCA3 is 2130 nM; on hCA II, 9.7 nM; at MtCA1, 962 nM; at MtCA2, 4.6 nM; at hCA VII, 2.6 nM; at hCA I, 60.5 nM.
